# Reference: ChEMBL document CHEMBL5226346, “Chiral Cyclic Aliphatic Linkers as Building Blocks for Selective Dopamine D2 or D3 Receptor Agonists” (J Med Chem, 2021)
# What was measured:
# [1] = species: Homo sapiens; experiment: Selectivity ratio of Ki for displacement of [3H]-N-methylspiperone from human dopamine D2 receptor expressed in HEK293 cell membranes to Ki for displacement of [3H]-N-methylspiperone from human dopamine D3 receptor expressed in HEK293 cell membranes
# [2] = test system: HEK293; experiment: Selectivity ratio of Ki for displacement of [3H]-(R)-(+)7-OH-DPAT from human dopamine D2 receptor expressed in HEK293 cell membranes to Ki for displacement of [3H]-(R)-(+)7-OH-DPAT from human dopamine D3 receptor expressed in HEK293 cell membranes; settings: Cell membrane
# [3] = molecular target: D(3) dopamine receptor (Homo sapiens, UniProt P35462); experiment: Displacement of [3H]-(R)-(+)7-OH-DPAT from human dopamine D3 receptor expressed in HEK293 cell membranes incubated for 90 mins by microbeta scintillation counting analysis; design: species or system Cell membrane
# [4] = molecular target: D(2) dopamine receptor (Homo sapiens, UniProt P14416); experiment: Displacement of [3H]-(R)-(+)7-OH-DPAT from human dopamine D2 receptor expressed in HEK293 cell membranes incubated for 90 mins by microbeta scintillation counting analysis; design: species or system Cell membrane
# [5] = species: Homo sapiens; experiment: Selectivity ratio of Ki for displacement of [3H]-(R)-(+)7-OH-DPAT from human dopamine D3 receptor expressed in HEK293 cell membranes to Ki for displacement of [3H]-(R)-(+)7-OH-DPAT from human dopamine D2 receptor expressed in HEK293 cell membranes
# Sequence of D(3) dopamine receptor (P35462 whole entry): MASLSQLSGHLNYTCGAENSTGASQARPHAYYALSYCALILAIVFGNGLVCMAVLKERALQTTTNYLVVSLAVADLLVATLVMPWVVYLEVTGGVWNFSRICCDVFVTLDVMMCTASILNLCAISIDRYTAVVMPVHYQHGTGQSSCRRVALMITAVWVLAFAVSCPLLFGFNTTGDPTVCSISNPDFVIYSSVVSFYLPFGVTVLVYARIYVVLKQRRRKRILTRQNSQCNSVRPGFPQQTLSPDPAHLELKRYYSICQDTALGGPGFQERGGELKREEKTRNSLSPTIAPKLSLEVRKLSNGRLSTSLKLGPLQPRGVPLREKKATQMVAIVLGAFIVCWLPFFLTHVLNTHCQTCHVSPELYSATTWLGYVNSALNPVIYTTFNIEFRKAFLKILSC
# Sequence of D(2) dopamine receptor (P14416 whole entry): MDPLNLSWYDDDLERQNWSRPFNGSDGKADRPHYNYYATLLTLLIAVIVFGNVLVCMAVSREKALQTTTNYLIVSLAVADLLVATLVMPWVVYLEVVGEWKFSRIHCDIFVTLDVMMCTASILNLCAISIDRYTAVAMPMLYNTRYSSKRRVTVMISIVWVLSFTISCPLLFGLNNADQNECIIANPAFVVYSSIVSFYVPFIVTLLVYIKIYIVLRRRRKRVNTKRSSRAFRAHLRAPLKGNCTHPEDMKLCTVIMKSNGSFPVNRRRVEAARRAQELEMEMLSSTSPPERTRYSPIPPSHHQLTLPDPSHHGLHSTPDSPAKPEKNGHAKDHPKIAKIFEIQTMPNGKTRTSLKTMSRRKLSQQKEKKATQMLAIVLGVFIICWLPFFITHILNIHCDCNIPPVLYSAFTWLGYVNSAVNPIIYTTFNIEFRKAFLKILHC
SMILES,Ratio Ki [1],Ratio Ki [2],Ki [3] [nM],Ki [4] [nM],Ratio Ki [5]
C[C@H]1CO[C@@H](c2ccc(N)nc2)CN1C/C=C1\CCC(CNC(=O)c2cc3ccccc3[nH]2)C1 (mixture of isomers),76,7.5,,,
C[C@H]1CO[C@@H](c2ccc(N)nc2)CN1CC(=O)N1CCC(CNC(=O)c2cc3ccccc3[nH]2)C1 (some centres undefined),3.3,1.4,1380,1870,
CN(C[C@H]1C[C@@H]1CCNC(=O)c1cc2ccccc2[nH]1)[C@@H]1Cc2cccc3[nH]c(=O)n(c23)C1,,2.2,22.1,49.1,
CN[C@@H]1Cc2cccc3[nH]c(=O)n(c23)C1 [SUMANIROLE],,,784,,
CN(CC[C@@H]1CC[C@H](CNC(=O)c2cc3ccccc3[nH]2)C1)[C@@H]1Cc2cccc3[nH]c(=O)n(c23)C1 (relative stereo),,,,,9.6
CN(CC[C@@H]1CC[C@@H](CNC(=O)c2cc3ccccc3[nH]2)C1)[C@@H]1Cc2cccc3[nH]c(=O)n(c23)C1 (relative stereo),,,,,17
CN(C[C@@H]1C[C@H]1CCNC(=O)c1cc2ccccc2[nH]1)[C@@H]1Cc2cccc3[nH]c(=O)n(c23)C1,,,106,9.56,11
C[C@H]1CO[C@@H](c2ccc(N)nc2)CN1CCn1cc(CNC(=O)c2cc3ccccc3[nH]2)nn1,12,2,6860,13500,
